According to patent US10316035B2, “Triazolopyridine inhibitors of myeloperoxidase” (BRISTOL-MYERS SQUIBB COMPANY, priority 2015, dated 2019):
pIC50: −log10 of the molar value.

Biological target: T1, myeloperoxidase (MPO) (Homo sapiens, UniProt P05164)
T1 sequence (P05164 49-745): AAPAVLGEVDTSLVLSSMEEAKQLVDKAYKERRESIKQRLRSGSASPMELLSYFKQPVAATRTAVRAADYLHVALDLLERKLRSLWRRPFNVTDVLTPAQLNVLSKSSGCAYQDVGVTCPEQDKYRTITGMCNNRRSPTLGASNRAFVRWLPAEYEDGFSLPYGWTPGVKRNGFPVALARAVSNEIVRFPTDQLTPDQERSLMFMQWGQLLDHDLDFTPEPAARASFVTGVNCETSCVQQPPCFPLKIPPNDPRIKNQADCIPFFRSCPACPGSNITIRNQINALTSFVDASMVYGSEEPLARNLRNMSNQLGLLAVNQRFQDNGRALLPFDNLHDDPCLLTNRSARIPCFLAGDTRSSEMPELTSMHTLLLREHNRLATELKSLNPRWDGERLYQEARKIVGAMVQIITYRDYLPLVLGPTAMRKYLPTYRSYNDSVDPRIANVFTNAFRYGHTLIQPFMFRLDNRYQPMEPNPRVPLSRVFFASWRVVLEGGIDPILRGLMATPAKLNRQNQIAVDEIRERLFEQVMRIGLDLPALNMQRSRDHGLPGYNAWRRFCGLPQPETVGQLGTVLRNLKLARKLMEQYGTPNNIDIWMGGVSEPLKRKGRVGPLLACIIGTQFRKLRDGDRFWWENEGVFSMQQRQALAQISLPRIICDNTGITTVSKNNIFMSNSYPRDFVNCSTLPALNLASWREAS
Assay: MPO peroxidation assay (Amplex Red assay)
Type: biochemical
Details: MPO peroxidation, potency range class; read-out: Amplex Red IC50
Method in brief: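 MPO (200 pM) with 40 nM H2O2 was preincubated 10 min at room temperature with inhibitor in 100 mM KPi pH 7.4. A mix of Amplex Red (200 μM) and H2O2 (10 mM) was then added and resorufin fluorescence read kinetically for 15 min. Slopes over 180–540 s gave % inhibition and IC50 via a four-parameter Hill fit.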

Structure (SMILES) | pIC50
Nc1cc(OCc2ccc(-c3ccc(OC(F)(F)F)cc3)cc2)c2nn[nH]c2n1 [Example 119, 7-((4′-(Trifluoromethoxy)biphenyl-4-yl)methoxy)-3H-[1,2,3]triazolo[4,5-b]pyridin-5-amine] | 6.00 to 7.00
Nc1cc(OCc2ccc(-c3cccc(C(F)(F)F)c3)cc2)c2nn[nH]c2n1 [Example 120, 7-((3′-(Trifluoromethyl)biphenyl-4-yl)methoxy)-3H-[1,2,3]triazolo[4,5-b]pyridin-5-amine] | 6.00 to 7.00
COc1cccc(Cl)c1-c1cccc(COc2cc(N)nc3[nH]nnc23)c1 [Example 124, 7-((2′-Chloro-6′-methoxybiphenyl-3-yl)methoxy)-3H-[1,2,3]triazolo[4,5-b]pyridin-5-amine] | 6.00 to 7.00
Nc1cc(OC(c2ccccc2)C(F)(F)F)c2nn[nH]c2n1 (centres unmarked) [Example 126, 7-(2,2,2-Trifluoro-1-phenylethoxy)-3H-[1,2,3]triazolo[4,5-b]pyridin-5-amine] | 6.00 to 7.00
COc1cccc(COc2cc(N)nc3[nH]nnc23)c1 [Example 127, 7-((3-Methoxybenzyl)oxy)-3H-[1,2,3]triazolo[4,5-b]pyridin-5-amine] | 6.00 to 7.00
Nc1cc(OCC2CCCCC2)c2nn[nH]c2n1 [Example 132, 7-(Cyclohexylmethoxy)-3H-[1,2,3]triazolo[4,5-b]pyridin-5-amine] | 6.00 to 7.00
CC(Oc1cc(N)nc2[nH]nnc12)c1ccccc1F (centres unmarked) [Example 140, 7-(1-(2-Fluorophenyl)ethoxy)-3H-[1,2,3]triazolo[4,5-b]pyridin-5-amine] | 6.00 to 7.00
CC(Oc1cc(N)nc2[nH]nnc12)c1ccc(OC(F)(F)F)cc1 (centres unmarked) [Example 142, 7-(1-(4-(Trifluoromethoxy)phenyl)ethoxy)-3H-[1,2,3]triazolo[4,5-b]pyridin-5-amine] | 5.00 to 6.00
CC(Oc1cc(N)nc2[nH]nnc12)c1cccc(OC(F)(F)F)c1 (centres unmarked) [Example 143, 7-(1-(3-(Trifluoromethoxy)phenyl)ethoxy)-3H-[1,2,3]triazolo[4,5-b]pyridin-5-amine] | 6.00 to 7.00
CC(=O)Nc1cccc(C(C)Oc2cc(N)nc3[nH]nnc23)c1 (centres unmarked) [Example 144, N-(3-(1-(5-Amino-3H-[1,2,3]triazolo[4,5-b]pyridin-7-yloxy)ethyl)phenyl)acetamide] | 6.00 to 7.00
CCC(Oc1cc(N)nc2[nH]nnc12)c1ccc(Cl)c(Cl)c1 (centres unmarked) [Example 145, 7-(1-(3,4-Dichlorophenyl)propoxy)-3H-[1,2,3]triazolo[4,5-b]pyridin-5-amine] | 6.00 to 7.00
Nc1cc(OCc2ccc3ccccc3c2)c2nn[nH]c2n1 [Example 147, 7-(Naphthalen-2-ylmethoxy)-3H-[1,2,3]triazolo[4,5-b]pyridin-5-amine] | 6.00 to 7.00
Nc1cc(OCc2cc(C(=O)N3CCCC3)ccc2F)c2nn[nH]c2n1 [Example 152, (3-((5-amino-3H-[1,2,3]triazolo[4,5-b]pyridin-7-yloxy)methyl)-4-fluorophenyl)(pyrrolidin-1-yl)methanone] | 6.00 to 7.00
Nc1cc(OCc2cc(C(=O)N3CCC(O)CC3)ccc2F)c2nn[nH]c2n1 [Example 153, (3-((5-amino-3H-[1,2,3]triazolo[4,5-b]pyridin-7-yloxy)methyl)-4-fluorophenyl)(4-hydroxypiperidin-1-yl)methanone] | 6.00 to 7.00
CN(CCO)C(=O)c1ccc(F)c(COc2cc(N)nc3[nH]nnc23)c1 [Example 154, 3-((5-amino-3H-[1,2,3]triazolo[4,5-b]pyridin-7-yloxy)methyl)-4-fluoro-N-(2-hydroxyethyl)-N-methylbenzamide] | 6.00 to 7.00
Nc1cc(OCc2cc(C(=O)Nc3nnc(C(F)(F)F)s3)ccc2F)c2nn[nH]c2n1 [Example 155, 3-((5-amino-3H-[1,2,3]triazolo[4,5-b]pyridin-7-yloxy)methyl)-4-fluoro-N-(5-(trifluoromethyl)-1,3,4-thiadiazol-2-yl)benzamide] | 6.00 to 7.00
Nc1cc(OCc2cc(C(=O)NCCCN3CCCC3=O)ccc2F)c2nn[nH]c2n1 [Example 156, 3-((5-amino-3H-[1,2,3]triazolo[4,5-b]pyridin-7-yloxy)methyl)-4-fluoro-N-(3-(2-oxopyrrolidin-1-yl)propyl) benzamide] | 6.00 to 7.00
Nc1cc(OCc2cc(C(=O)NC3(CO)CCCC3)ccc2F)c2nn[nH]c2n1 [Example 160, 3-((5-amino-3H-[1,2,3]triazolo[4,5-b]pyridin-7-yloxy)methyl)-4-fluoro-N-(1-(hydroxymethyl)cyclopentyl) benzamide] | 6.00 to 7.00
Nc1cc(OCc2cc(C(=O)NC3CCC(O)CC3)ccc2F)c2nn[nH]c2n1 (centres unmarked) [Example 163] | 6.00 to 7.00

The remaining lines, values ahead:

pIC50 | Structure (SMILES)
6.00 to 7.00 | Nc1cc(OCc2ccc(-c3ccccc3F)cc2)c2nn[nH]c2n1 [Example 114, 7-((2′-Fluorobiphenyl-4-yl)methoxy)-3H-[1,2,3]triazolo[4,5-b]pyridin-5-amine]
7.00 to 9.00 | COc1c(F)cccc1-c1cccc(COc2cc(N)nc3[nH]nnc23)c1 [Example 115, 7-((3′-Fluoro-2′-methoxybiphenyl-3-yl)methoxy)-3H-[1,2,3]triazolo[4,5-b]pyridin-5-amine]
6.00 to 7.00 | CCN(C)C(=O)c1ccc(-c2cccc(COc3cc(N)nc4[nH]nnc34)c2)cc1F [Example 116, 3′-((5-Amino-3H-[1,2,3]triazolo[4,5-b]pyridin-7-yloxy)methyl)-N-ethyl-3-fluoro-N-methylbiphenyl-4-carboxamide]
6.00 to 7.00 | COc1c(F)cc(F)cc1-c1ccc(COc2cc(N)nc3[nH]nnc23)cc1 [Example 117, 7-((3′,5′-Difluoro-2′-methoxybiphenyl-4-yl)methoxy)-3H-[1,2,3]triazolo[4,5-b]pyridin-5-amine]
7.00 to 9.00 | COc1cccc(Cl)c1-c1ccc(COc2cc(N)nc3[nH]nnc23)cc1 [Example 118, 7-((2′-Chloro-6′-methoxybiphenyl-4-yl)methoxy)-3H-[1,2,3]triazolo[4,5-b]pyridin-5-amine]
7.00 to 9.00 | Nc1cc(OCc2cccc(-c3cncc(F)c3)c2)c2nn[nH]c2n1 [Example 121, 7-(3-(5-Fluoropyridin-3-yl)benzyloxy)-3H-[1,2,3]triazolo[4,5-b]pyridin-5-amine]
7.00 to 9.00 | COc1ccc(-c2ccc(COc3cc(N)nc4[nH]nnc34)cc2)cc1 [Example 122, 7-((4′-Methoxybiphenyl-4-yl)methoxy)-3H-[1,2,3]triazolo[4,5-b]pyridin-5-amine]
7.00 to 9.00 | COc1ccccc1-c1ccc(COc2cc(N)nc3[nH]nnc23)cc1 [Example 123, 7-((2′-Methoxybiphenyl-4-yl)methoxy)-3H-[1,2,3]triazolo[4,5-b]pyridin-5-amine]
7.00 to 9.00 | COc1ccccc1COc1cc(N)nc2[nH]nnc12 [Example 125]
7.00 to 9.00 | CCOc1ccccc1COc1cc(N)nc2[nH]nnc12 [Example 128, 7-((2-Ethoxybenzyl)oxy)-3H-[1,2,3]triazolo[4,5-b]pyridin-5-amine]
7.00 to 9.00 | Nc1cc(OCc2cccc(F)c2F)c2nn[nH]c2n1 [Example 129, 7-((2,3-Difluorobenzyl)oxy)-3H-[1,2,3]triazolo[4,5-b]pyridin-5-amine]
7.00 to 9.00 | Nc1cc(OCc2ccc(F)cc2F)c2nn[nH]c2n1 [Example 130, 7-((2,4-Difluorobenzyl)oxy)-3H-[1,2,3]triazolo[4,5-b]pyridin-5-amine]
7.00 to 9.00 | CS(=O)(=O)c1cc(Cl)ccc1COc1cc(N)nc2[nH]nnc12 [Example 131, 7-(4-Chloro-2-(methylsulfonyl)benzyloxy)-3H-[1,2,3]triazolo[4,5-b]pyridin-5-amine]
7.00 to 9.00 | Nc1cc(OCc2cccc(Br)c2)c2nn[nH]c2n1 [Example 148, 7-(3-Bromobenzyloxy)-3H-[1,2,3]triazolo[4,5-b]pyridin-5-amine]
7.00 to 9.00 | CC(NC(=O)c1ccc(F)c(COc2cc(N)nc3[nH]nnc23)c1)c1ccccc1 (centres unmarked) [Example 157, 3-((5-amino-3H-[1,2,3]triazolo[4,5-b]pyridin-7-yloxy)methyl)-4-fluoro-N-(1-phenylethyl)benzamide]
7.00 to 9.00 | COCCNC(=O)c1ccc(F)c(COc2cc(N)nc3[nH]nnc23)c1 [Example 158, 3-((5-amino-3H-[1,2,3]triazolo[4,5-b]pyridin-7-yloxy)methyl)-4-fluoro-N-(2-methoxyethyl)benzamide]
7.00 to 9.00 | CN(C(=O)c1ccc(F)c(COc2cc(N)nc3[nH]nnc23)c1)c1ccccc1 [Example 159, 3-((5-amino-3H-[1,2,3]triazolo[4,5-b]pyridin-7-yloxy)methyl)-4-fluoro-N-methyl-N-phenylbenzamide]
7.00 to 9.00 | NC(=O)CNC(=O)c1ccc(F)c(COc2cc(N)nc3[nH]nnc23)c1 [Example 161, N-(2-amino-2-oxoethyl)-3-((5-amino-3H-[1,2,3]triazolo[4,5-b]pyridin-7-yloxy)methyl)-4-fluorobenzamide]
7.00 to 9.00 | Nc1cc(OCc2cc(C(=O)NCC3CC3)ccc2F)c2nn[nH]c2n1 [Example 162, 3-((5-amino-3H-[1,2,3]triazolo[4,5-b]pyridin-7-yloxy)methyl)-N-(cyclopropylmethyl)-4-fluorobenzamide]
